The values below come from patent US11033604B2, “Reagents and methods for treating bacterial infection” (priority 2018, dated 2021).

Positions of bridges follow the written chain, without caps; N, C: chain ends. Non-standard residues stand in square brackets, D forms with d. No end group written: not given here.

Test [1] has as its system P. aeruginosa PAO1 pFap biofilms. Kind of test: In situ ThT assay of Fap amyloid in P. aeruginosa biofilms. Format: cell-based. To be noted: LB medium, 37° C., 48 h. From the text:
FIG. 15. Action of synthetic α-sheet peptides in the P. aeruginosa system. […] Error bars indicate standard deviation of the mean of at least three replicates. Significance values are p<0.05: *, p<0.01: **, p<0.001: ***.
The strain used in these experiments is a fap-overexpressing mutant of P. aeruginosa PAO1 WT called PAO1 pFap. The overexpression is generated by cloning the entire fap operon into a host expression vector, which is then transformed into PAO1 WT. […] For in situ assays, overnight cultures from a single colony of freshly transformed PAO1 pFap were used to inoculate 96 well plates in the presence of synthetic α-sheet peptides in LB medium. As a control, biofilms of the deletion strain PAO1 Δfap were grown under the same conditions. Plates were covered and incubated at 37° C. for 48 h. After incubation, planktonic cells and media were gently removed from the biofilms by pipetting. The biofilms were rinsed once with PBS prior to staining with 20 μM ThT. Stained biofilms were resuspended by pipetting and sonication, and the fluorescence of ThT was measured at 448/485 nm in a plate reader.

The next test relates to S. aureus MN8 biofilms. Kind of test: ThT fluorescence assay of amyloid formation in S. aureus MN8 biofilm cultures. In kind it is cell-based, Staphylococcus aureus. Particulars: for Effect on amyloid fibril formation in S. aureus biofilms (ThT fluorescence, FIG. 1B): MN8 and SH1000 WT strains, particularly MN8; for Effect on amyloid fibril formation in S. aureus biofilms (ThT fluorescence, FIG. 1B) / Reduction of amyloid fibril formation (ThT fluorescence): 24 h, 37° C.; for Reduction of amyloid fibril formation (ThT fluorescence): S. aureus MN8 biofilm, peptide 80 μM unless otherwise noted, vs peptide-free control. How it is done: We developed a novel protocol to identify amyloid fibril formation during biofilm development in two S. aureus strains—SH1000 WT, a rsbU^+ laboratory strain^27, and MN8, a clinical strain isolated from the human urogenital tract (Table 1). After 24 hours of batch growth in microtiter plates, biofilms were washed and incubated with Thioflavin T (ThT), and the resulting fluorescence signals served as a proxy for the extent of PSM fibril formation in the EM (FIG. 1A). Next, we utilized this assay to test α-sheet amyloid inhibitor designs and control peptides (sequences provided in Table 2) in batch biofilm cultures. The first inhibitor used is AP90 (Alternating Peptide #90, referred to as α1 previously^25,26). […] The AP401 and AP407 designs display similar spectral features by CD, except that AP401 has a positive signal in the random coil region (FIG. 7). AP401 has the same sequence as AP90 but with reversed chirality in the strands and turn, thus the D-amino acids give rise to an approximate mirror image CD spectrum relative to AP90. AP407 is a variant of AP90 with a disulfide bond. An unstructured random coil peptide (RC) and a β-hairpin (β) are used as structural controls.
Designed and control peptides were added to the growth medium prior to inoculation, and biofilms were allowed to grow for 24 hours at 37° C. Planktonic cells were removed and the remaining biofilms were assayed for amyloid content using ThT. […] The disulfide-linked peptide design, AP407, reduced the amyloid fibril formation by 46% and 56% in the MN8 and SH1000 WT strains, respectively. In contrast, the random coil and β-sheet control peptides were ineffective.
Overnight cultures of S. aureus (see Table 1 for a list of strains used in this study) were spun down and re-suspended in fresh Luria-Bertani (LB) media to an optical density of 0.1 (600 nm). These cultures were then mixed with reconstituted peptide (or water, in the case of controls) and aliquoted in quadruplicate into wells of a clear 48-well plate (Corning, TC-treated polystyrene). The final concentration of peptide in each well was 80 μM, unless otherwise noted. Plates were covered and biofilms were grown at 37° C. for 24 hours with gentle rocking. At this time, medium and planktonic cells were removed from wells using a vacuum and the remaining adherent biofilms were rinsed once with PBS (BupH™, Thermo Scientific). Thioflavin T (ThT), an established fluorescent label for amyloid fibrils^40, was then added to each well at a concentration of 22 μM and biofilms were incubated statically for 4 hours at room temperature. The solution was then removed from the wells and PBS was added with vigorous pipetting to detach biofilms from the plate surface. Plates were shaken at high speed for 1 minute on a plate shaker to detach any remaining biofilm material and homogenize the samples. The detached biofilm suspensions were transferred to a 96-well black-walled plate (Corning, TC-treated polystyrene) and ThT fluorescence was read at 438/495 nm on a Perkin-Elmer Enspire™ plate reader. Fluorescence measurements were corrected by subtracting the background intensity of identical samples without ThT. For calculation of live:dead cell ratios, biofilm suspensions were prepared as described above and cells were stained with a 1:1 mixture of Syto9 and propidium iodide (LIVE/DEAD BacLight™ Bacterial Viability Kit, Thermo Scientific). After 15 minutes of incubation at room temperature, fluorescence ratios of the two dyes were determined using a Perkin-Elmer Enspire™ plate reader.

The test system of the next test is S. mutans UA159 biofilms. Kind of test: ThT assay for S. mutans biofilms (plate). In kind it is cell-based, Streptococcus mutans. To be noted: 28 h, vs control. The text has this: (§1) FIG. 16. Synthetic α-sheet peptides as a novel anti-biofilm agent for the dental pathogen, S. mutans. A) ThT fluorescence of S. mutans biofilms decreases upon addition of synthetic α-sheet peptides AP193, AP407, and AP90. […] D) synthetic α-sheet peptides added to S. mutans grown on hydroxyapatite ceramic particles led to significant decreases in ThT fluorescence.
The peptides AP90, AP407, AP193, P411, and P1 were screened for their ability to inhibit amyloid fibril formation using an optimized ThT assay for S. mutans biofilms. Briefly, S. mutans UA159 overnight cultures were diluted in BHI medium with 30 mM sucrose and 1% (v/v) EC Oxyrase(R) to ensure an oxygen-limited environment. Inocula were then mixed with inhibitors in water, or only water for blank conditions. Biofilms were cultivated at 37° C. in 96 well plates. After 28 h, planktonic cells and media were aspirated. Biofilms were rinsed once with PBS and then resuspended in a solution of 22 μM ThT in PBS. Stained biofilm suspensions were transferred to a new microtiter plate and their fluorescence was measured in a plate reader.
Several synthetic peptides caused significant suppression in the amyloid content of S. mutans biofilms, and the effect was specific to those with α-sheet structure. AP193 at 40 μM decreased ThT fluorescence by 33% (p=0.007). […] AP90 caused a 16% decrease in ThT fluorescence at 85 μM (p=0.017).

Test [2] relates to S. mutans biofilms on hydroxyapatite. The test can be described thus: ThT assay of S. mutans biofilms grown on ceramic-hydroxyapatite particles. Format: cell-based, Streptococcus mutans. Particulars: 24 h. How it is done: as §1
To assess peptide inhibition of amyloid fibrils in S. mutans adhered to tooth-like surfaces, biofilms were grown on ceramic-hydroxyapatite particles. Hydroxyapatite is the primary mineral present in the structure of a tooth, so this assay is a more physiologically relevant model of S. mutans accumulation. ThT fluorescence of adhered biofilms was determined after 24 h of growth. Synthetic α-sheet peptides were added to medium and hydroxyapatite ceramic particles prior to cell growth. […] Both AP193 monomer and dimer caused significant decreases in ThT fluorescence (23% and 63%, respectively; FIG. 16D).

In another test the test system is PSMα1. From the text: FIG. 6. […] Error bars represent the standard error of the mean.

Take “RGEmNlCwMNEYSGWcMnLkMGR (RGE[dM]N[dL]C[dW]MNEYSGW[dC]M[dN]L[dK]MGR; disulfide 7-16 (inferred)) [AP407, variant of AP90 with a disulfide bond]”: in test [1], the “Amyloid formation in biofilms (ThT)” value is reported as “significantly inhibit amyloid formation”. Further, in the test with S. aureus MN8 biofilms, the “Effect on amyloid fibril formation in S. aureus biofilms (ThT fluorescence, FIG. 1B)” value is “significant reduction in amyloid fibril formation” and the “Reduction of amyloid fibril formation (ThT fluorescence)” value is listed as 46%. The “Decrease in ThT fluorescence” value in the test with S. mutans UA159 biofilms (85 μM) was 42%.

Regarding “RGEmNlSwMNEYSGWtMnLkMGR (RGEMNLSWMNEYSGWTMNLKMGR; not fully specified (residues 4, 6, 8, 16, 18, 20); printed as RGEmNlSwMNEYSGWtMnLkMGR) [AP90]”, the “Amyloid formation in biofilms (ThT)” value in test [1] was “significantly inhibit amyloid formation”. Besides, in test [2] (100 μM), the “Decrease in ThT fluorescence” value worked out at 20%. Moreover, in the test on S. aureus MN8 biofilms, the “Effect on amyloid fibril formation in S. aureus biofilms (ThT fluorescence, FIG. 1B)” value was “significant reduction in amyloid fibril formation” and the “Reduction of amyloid fibril formation (ThT fluorescence)” value is on record as 47%. Further, in the test with S. aureus MN8 biofilms (S. aureus MN8 biofilms, increasing concentrations in culture medium), the “Fibril formation with increasing peptide concentration (FIG. 1C)” value is listed as “decreased in a dose-dependent manner”. In addition, the “Change of binding affinity as PSMα1 converted to β-sheet” value in the test with PSMα1 (PSMα1 at 146 h vs end of lag phase) is listed as “dropped by two orders of magnitude”. Further, in the test with S. mutans UA159 biofilms (85 μM), the “Decrease in ThT fluorescence” value came out at 16%.

“RGEmNyFwMNEYYGWtMnCkMGR (RGE[dM]N[dY]F[dW]MNEYYGW[dT]M[dN]C[dK]MGR) [AP193, hydrophobic AP90 derivative, variant to support different chemical coupling reactions]”: in test [1], the “Amyloid formation in biofilms (ThT)” value is given as “significantly inhibit amyloid formation”. The “Decrease in ThT fluorescence” value in test [2] (concentration not given) is 23%; with S. mutans UA159 biofilms (40 μM) it was 33%. Also, the “Binding of PSMα1 to peptide-functionalized beads” value in the test on PSMα1 (PSMα1 pre-incubated 0, 24, 48 h) was “preferentially bound α-sheet rich PSMα1 (48 h) over earlier time points”.
